Read-outs that look alike come from different tables or passages of the source.
How the values were obtained:
[1] = tested on: tobacco budworm GABA-gated chloride channel; type: cell-based; conditions: for Fluorescence: then GABA, HEK a-3 cells, average of three tests
Protocol: The following solutions were prepared prior to or on the same day the experiment was to be carried out: • Solution A: To about one liter of deionized water was added 8.0 grams of sodium chloride, 0.395 gram of potassium chloride, 0.294 gram of calcium chloride, 0.203 gram of magnesium chloride, 4.5 grams of glucose, and 2.38 grams of [4-(2-hydroxyethyl)-1-piperazineethanesulfonic acid (“HEPES”) (all available from Aldrich Chemical Company, Milwaukee, Wis.). The resulting solution was stirred until dissolution was complete and then the pH adjusted to 7.3 to 7.4 with an aqueous 1 M sodium hydroxide solution. • Solution B: To one vile of the dye (“FLIPR® Membrane Potential Assay Reagent, Component A”) contained in the FLIPR® Membrane Potential Assay Kit was added about 10 ml of Solution A. The resulting mixture was mixed by repeated pippetting until the content of the vile was completely dissolved and used immediately or stored at […] for future use.
The following solution was prepared on the same day the experiment was to be carried out: • Solution C: To solution B was added about 90 mL of Solution A. The resulting mixture was mixed until dissolution was complete. • Solution D: GABA (available from Sigma Chemical Co., St. Louis, Mo.), […], was taken up in 30 ml of Solution A. The resulting solution was mixed until dissolution was completion, yielding a […] GABA solution. • Solution E: To 1.2 ml of Solution D was added 38.8 ml of Solution A. The resulting mixture was mixed by repeated pippetting until dissolution was complete, yielding a 300 μM GABA solution.
On the same day the experiment is to be carried, Solutions A-E are prepared again in the manner described above.
(§1) One day before of the experiment, HEK a-3 cells were seeded into two wells of a poly-D-lysine coated blackwall 96 well microplate with clear bottom at a cell density of about 100,000 cells per well. Upon completion of addition, the cells were incubated at 37° C. in a cell culture incubator for twenty-four hours, for use below.
In carrying out the first step, on the day of the experiment, the 96 well microplate containing the HEK a-3 cells was removed from the incubator and 100 μl of Solution C was added to the two wells of the 96 well microplate. Upon completion of addition, the microplate was allowed to stand at ambient temperature of 3.5 to 4 hours. After this time, the microplate was placed onto the FLIPR^384® Fluorometric Imaging Plate Reader system in which the laser intensity was set at a suitable level to obtain a basal value of approximately 10,000 fluorescence units, fluorescent readings were obtained every one second for the first minute and then every six seconds thereafter, and fluorescence measurements were captured by a cooled CCD camera. After ten seconds from the start of the fluorescence measurements, 25 μl of Solution E was added at a rate of 25 μl/second by the system to one of the two wells of the 96 well microplate. Upon completion of addition, the level of fluorescence of the HEK a-3 cells was determined using the FLIPR^384® Fluorometric Imaging Plate Reader system.
as §1, with “each well” for “two wells”, “bottom (available from Becton, Dickinson and Company, Franklin Lakes, N.J.)” for “bottom”
In carrying out the first step, on the day of the experiment, the 96 well microplate containing the HEK a-3 cells was removed from the incubator and 100 μl of Solution C were added to each well of the 96 well microplate. Upon completion of addition, the microplate was stored at ambient temperature for 3.5 to 4 hours. […]

[2] = tested on: tobacco budworm GABA-gated chloride channel; assay: Fluorescence in HEK a-3 cells by the standard protocol of the FLIPR Membrane Potential Assay Kit; type: cell-based; conditions: 25 μl of 300 μM GABA solution; dye incubated at 37° C. for 0.5 to one hour; FIG. 1
Protocol: This example illustrates the measurement of fluorescence in HEK a-3 cells in the manner described in the protocol for the FLIPR® Membrane Potential Assay Kit.
The following solutions were prepared prior to or on the same day the experiment was to be carried out: • Solution A: To about one liter of deionized water was added 8.0 grams of sodium chloride, 0.395 gram of potassium chloride, 0.294 gram of calcium chloride, 0.203 gram of magnesium chloride, 4.5 grams of glucose, and 2.38 grams of [4-(2-hydroxyethyl)-1-piperazineethanesulfonic acid (“HEPES”) (all available from Aldrich Chemical Company, Milwaukee, Wis.). […]
In carrying out the first step, on the day of the experiment, the 96 well microplate containing the HEK a-3 cells was removed from the incubator and 100 μl of Solution C was added to the two wells of the 96 well microplate. […] After this time, the microplate was placed onto the FLIPR^384® Fluorometric Imaging Plate Reader system in which the laser intensity was set at a suitable level to obtain a basal value of approximately 10,000 fluorescence units, fluorescent readings were obtained every one second for the first minute and then every six seconds thereafter, and fluorescence measurements were captured by a cooled CCD camera. […]

[3] = 10 μM compound, [1 − (fluorescence of test compound/fluorescence of control)] × 100
[4] = 0.003 μM compound, relative to DMSO control
[5] = 0.01 μM compound, relative to DMSO control
[6] = 0.03 μM compound, relative to DMSO control
[7] = 0.1 μM compound, relative to DMSO control
[8] = 0.3 μM compound, relative to DMSO control
[9] = 1 μM compound, relative to DMSO control
[10] = 3 μM compound, relative to DMSO control

Compound	Fluorescence ([1]; 10 μM compound)	% Inhibition [1, 3]	Fluorescence ([1]; 0.003 μM compound)	% Inhibition [1, 4]	Fluorescence ([1]; 0.01 μM compound)	% Inhibition [1, 5]	Fluorescence ([1]; 0.03 μM compound)	% Inhibition [1, 6]	Fluorescence ([1]; 0.1 μM compound)	% Inhibition [1, 7]	Fluorescence ([1]; 0.3 μM compound)	% Inhibition [1, 8]	Fluorescence ([1]; 1 μM compound)	% Inhibition [1, 9]	Fluorescence ([1]; 3 μM compound)	% Inhibition [1, 10]	change in fluorescence after addition of GABA ([1]; 25 μl of 300 μM GABA solution, dye at ambient temperature 3.5 to 4 hours, FIG. 2)	change in fluorescence after addition of GABA [2]
CN1CCc2cc3c(cc2[C@H]1[C@@H]1OC(=O)c2c1ccc1c2OCO1)OCO3 [Bicuculine, bicuculine]	11543	5%																
ClC1=C(Cl)[C@]2(Cl)[C@@H]3[C@@H]4C[C@@H]([C@H]5O[C@@H]45)[C@@H]3[C@@]1(Cl)C2(Cl)Cl [Dieldrin, dieldrin]	67	100%	13284	−1%	12339	5%	11492	12%	9924	34%	7279	44%	4184	68%	900	93%		
O=S1OCC2C(CO1)C1(Cl)C(Cl)=C(Cl)C2(Cl)C1(Cl)Cl (stereo not drawn) [Endosulfan, endosulfan]	993	93%	14343	−3%	15198	−9%	11074	20%	7098	48%	4426	68%	1903	86%	1615	88%		
N#Cc1nn(-c2c(Cl)cc(C(F)(F)F)cc2Cl)c(N)c1[S+]([O-])C(F)(F)F (stereo not drawn) [Fipronil, fipronil]	628	95%	11275	10%	8328	43%	6441	48%	4469	64%	2990	76%	1790	86%	1031	92%		
NCCCC(=O)O [GABA, Gamma amino-n-butyric acid]																	an increase in fluorescence	no change in fluorescence was observed
CCCC(C)C1(CC)C(=O)NC(=O)NC1=O (stereo not drawn) [Pentabarbitol]	11575	5%																

Reference: US20060014219A1 (priority 2002, published 2006)
